Common to all, as to format: in vivo, C57BL/6 mice
The subject of test [1] is mouse animal model with emphysema induced by porcine pancreatic elastase (PPE). The experiment in a line: Immune cells in bronchoalveolar lavage fluid of PPE-induced emphysema mice. The note with it: BAL fluid day 4. An excerpt: The present inventors performed an experiment to determine whether regorafenib has activity capable of treating chronic obstructive pulmonary disease. The initial response induced by PPE (porcine pancreatic elastase) representatively includes immune responses that occur in damaged lung tissue. The activated immune response promotes the proliferation of various immune cells and the secretion of various inflammatory mediators. Specifically, the overall number of immune cells increases with an increase in individual immune cells involved in the immune response. In particular, an increase in the numbers of macrophages, lymphocytes, eosinophils, and neutrophils is observed. The increase in the number of these cells can be confirmed through a bronchoalveolar lavage (BAL) fluid test.
Therefore, in the present invention, mice with chronic obstructive pulmonary disease, particularly emphysema, in which alveolar damage was induced by reducing elastin content using PPE, were prepared and then treated with regorafenib to thus analyze whether chronic obstructive pulmonary disease was ameliorated. Specifically, 6-week-old C57BL/6 mice were purchased and acclimatized for one week. Thereafter, the acclimatized 7-week-old mice (average 25 g) were orally administered with 200 µl of regorafenib (SelleckChem, BAY 73-4506) at a concentration of 5 mg/kg. […] The stained slide was analyzed and quantified using a microscope.
According to the method described above, a mouse animal model of chronic obstructive pulmonary disease was prepared by administering the mouse lungs with 5U of PPE, and in order to verify whether the immune response was modulated, one day before administration of PPE and on days 2 and 3 after administration of PPE, regorafenib (5 mg/kg) was administered thereto, and on day 4, bronchoalveolar lavage fluid was obtained and the immune cells therein were stained to thus quantitatively analyze the type of immune cells and the number of individual cells. […]

For test [2] the test system is unchanged. The experiment in a line: Alveolar size (mean linear intercept, Lm) in PPE-induced emphysema mice. The note with it: regorafenib 5 mg/kg oral for one week from two weeks after PPE 5U nasal; lungs on week 3, H&E. From the text:
One of the pathological indicators of chronic obstructive pulmonary disease is changed alveolar size. Changes in the alveolar size can be analyzed by quantifying the mean linear intercept (Lm) value, representing the average distance between the alveolar walls, in a microscopic field of view. When chronic obstructive pulmonary disease is induced, this value increases, indicating an increase in the alveolar size.
Therefore, the present inventors analyzed whether it is possible to alleviate changes in lung structure by measuring the change in Lm value due to treatment with regorafenib in a mouse animal model with emphysema, a chronic obstructive pulmonary disease, prepared over three weeks through administration of PPE (FIG. 2A).
Specifically, 6-week-old C57BL/6 mice were acclimatized for one week, after which the acclimatized 7-week-old mice (average 25 g) were subjected to nasal administration with saline and PPE [elastase from porcine pancreas] (EPC, EC134) at a concentration of 5U. […] The prepared block was cut using a sectioning machine, attached to a slide, subjected to H&E staining, and then quantified by measuring the Lm value based on microscopic images.

For test [3] the test system is unchanged. The test is described as follows: Lung function (flexiVent) in PPE-induced emphysema mice. The note with it: regorafenib 5 mg/kg oral for one week from two weeks after PPE 5U nasal; flexiVent on week 3. From the text:
In addition, the present inventors performed an experiment to determine whether regorafenib is able to restore lost function of damaged lungs in order to confirm whether regorafenib is able to treat chronic obstructive pulmonary disease.
Specifically, 6-week-old C57BL/6 mice were purchased and acclimatized for one week, after which the acclimatized 7-week-old mice (average 25 g) were subjected to nasal administration with saline and PPE [elastase from porcine pancreas] (EPC, EC134) at a concentration of 5U. Two weeks after administration, the mice were orally administered with 200 µl of regorafenib (SelleckChem, BAY 73-4506) at a concentration of 5 mg/kg for one week. Then, the mice were anesthetized using 300 µl of anesthetic on week 3, after which the lung function of each mouse was measured using a flexiVent (system for measuring the function of lungs) and quantified by subtracting the error value therefrom.

Consider `CNC(=O)c1cc(Oc2ccc(NC(=O)Nc3ccc(Cl)c(C(F)(F)F)c3)c(F)c2)ccn1` [regorafenib], for which, in test [1] (regorafenib 5 mg/kg oral), the numbers of eosinophils result was “significantly decreased” and the numbers of neutrophils entry is listed as “significantly decreased”. Besides, in test [1] (regorafenib 5 mg/kg oral one day before and on days 2 and 3 after PPE 5U nasal), the “decrease of the number of immune cells increased due to PPE” value is listed as “about 50%”. For the same compound, the “decrease of Lm value compared to the PPE treatment group” value in test [2] is reported as “about 50%”. In test [3], the lung function indicators result is “restored”.

For the origin of these results see patent publication US20230061201A1, “COMPOSITION FOR PREVENTING OR TREATING CHRONIC OBSTRUCTIVE PULMONARYDISEASE COMPRISING REGORAFENIB AS ACTIVE INGREDIENT” (Chungbuk National University Industry-Academic Cooperation …, priority 2021, published 2023).
